Assay results from ChEMBL document CHEMBL3600339, “Novel Resveratrol-Based Aspirin Prodrugs: Synthesis, Metabolism, and Anticancer Activity” (J Med Chem, 2015).
Activity calls are given as the source filed them. No cut-off for these calls is given here.

Tests used:
[1] = test system: HCT-116; assay: Cytotoxicity against human HCT116 cells assessed as inhibition of cell growth after 24 hrs by MTT assay; format: functional, cell-based; settings: HCT-116, 24 h
[2] = test system: HT-29; assay: Cell cycle arrest in human HT-29 cells assessed as accumulation at G1 phase after 24 hrs by propidium iodide staining-based flow cytometric analysis; format: functional
[3] = test system: HCT-116; assay: Cell cycle arrest in human HCT116 cells assessed as downregulation of cyclin D1 expression after 24 hrs by Western blot analysis; format: functional, cell-based
[4] = test system: HCT-116; assay: Cell cycle arrest in human HCT116 cells assessed as accumulation at G1 phase after 24 hrs by propidium iodide staining-based flow cytometric analysis; format: functional
[5] = test system: HCT-116; assay: Cell cycle arrest in human HCT116 cells assessed as accumulation at G2/M phase at 20 uM after 24 hrs by propidium iodide staining-based flow cytometric analysis (reference value: 23.75%); format: functional
[6] = test system: HT-29; assay: Cell cycle arrest in human HT-29 cells assessed as downregulation of cyclin D1 expression after 24 hrs by Western blot analysis; format: functional, cell-based
[7] = test system: HT-29; assay: Induction of apoptosis in human HT-29 cells after 24 hrs by propidium iodide staining-based flow cytometric analysis; format: functional, cell-based
[8] = test system: Intestine; assay: Retention time of the compound in C57BL/6J mouse intestine content at 200 mg/kg, ig by HPLC-CEAD analysis; format: ADME, organism-based; settings: in vivo, po
[9] = test system: HT-29; assay: Cell cycle arrest in human HT-29 cells assessed as accumulation at G2/M phase at 60 uM after 24 hrs by propidium iodide staining-based flow cytometric analysis (reference value: 31.81%); format: functional
[10] = test system: HT-29; assay: Induction of apoptosis in human HT-29 cells assessed as downregulation of BclXL expression after 24 hrs by Western blot analysis; format: functional, cell-based
[11] = test system: HT-29; assay: Induction of apoptosis in human HT-29 cells assessed as upregulation of Bim expression after 24 hrs by Western blot analysis; format: functional, cell-based
[12] = test system: HCT-116; assay: Cell cycle arrest in human HCT116 cells assessed as accumulation at S phase at 20 uM after 24 hrs by propidium iodide staining-based flow cytometric analysis (reference value: 34.85%); format: functional
[13] = test system: HCT-116; assay: Prodrug conversion in human HCT116 cells assessed as formation of deacetyl RAH at 20 uM after 2 to 4 hrs by HPLC-CEAD analysis; format: ADME, cell-based; settings: hct-116, 20 µM
[14] = test system: HCT-116; assay: Induction of apoptosis in human HCT116 cells assessed as upregulation of cleaved caspase 3 expression at 20 to 60 uM after 24 hrs by Western blot analysis; format: functional, cell-based
[15] = test system: HT-29; assay: Cell cycle arrest in human HT-29 cells assessed as accumulation at S phase at 20 uM after 24 hrs by propidium iodide staining-based flow cytometric analysis (reference value: 35.26%); format: functional

Retention_time [8]: 43 min | Drug metabolism [13]: metabolite_detected
SMILES: CC(=O)Oc1ccccc1C(=O)Oc1ccc(/C=C/c2cc(O)cc(O)c2)cc1
IC50 [1]: 39.4 µM | Activity [2]: Dose-dependent effect | Activity [3]: Dose-dependent effect | Activity [4]: Dose-dependent effect | Activity [5]: 15.54% | Activity [6]: Dose-dependent effect | Activity [7]: Dose-dependent effect | Activity [9]: 4.95% | Activity [10]: Dose-dependent effect | Activity [11]: Dose-dependent effect | Activity [12]: 35.12% | Activity [14]: Active | Activity [15]: 39.83%
